The values that follow come from ChEMBL document CHEMBL1201862, “PubChem BioAssay data set” (2004).

Test systems include MDA-MB-231; A498; OVCAR-4; SK-OV-3; OVCAR-8; HCT-15; SF-268; IGROV-1; OVCAR-3; MDA-MB-435; NCI-H23; HT-29; Hs-578T; ACHN; BT-549; DU-145; KM12; K562; MCF7; HL-60.
Holding throughout (assay): NCI anticancer screen, dose series, 48 h

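The compound was tested at five concentrations on cells cultured in 96-well plates, with a 48-hour exposure period. The concentration for 50% growth inhibition is given as GI50.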 The source made the active and inactive calls. No stated cut-off is given here; in the data, active = GI50 up to about 1.1 µM and inactive = higher. Some results are limits rather than exact numbers.

For `COc1cc2c(cc1OC)C(N)CC2=O` (stereo unspecified), the GI50 was > 100 µM (inactive) with MDA-MB-231; > 100 µM (inactive) in the assay on A498; > 100 µM (inactive) in the assay with OVCAR-4; > 100 µM (inactive) in the assay with SK-OV-3; > 100 µM (inactive) in the assay on OVCAR-8; over 100 µM in the assay on HCT-15. The GI50 in the assay on SF-268, in the assay with IGROV-1, in the assay on OVCAR-3, in the assay on MDA-MB-435, with NCI-H23 and in the assay on HT-29 was > 100 µM (inactive) each time. Moreover, the GI50 in the assay on Hs-578T, in the assay on ACHN, in the assay on BT-549, in the assay on DU-145, in the assay on KM12 and in the assay on K562 was > 100 µM (inactive) each time. The GI50 in the assay on MCF7 was > 100 µM (inactive).
Turning to `Brc1ccc(/N=N/c2ccc3ccccc3n2)cc1`, the GI50 is > 10 µM (inactive) in the assay on MDA-MB-231; 22.9 µM (inactive) in the assay with SK-OV-3; 30.3 µM (inactive) in the assay on OVCAR-8; 35.3 µM in the assay on HCT-15; 22.3 µM (inactive) with SF-268; 21.4 µM (inactive) in the assay with IGROV-1. In addition, the GI50 in the assay on MDA-MB-435 was 64.3 µM (inactive); in the assay with NCI-H23, 27.8 µM (inactive); in the assay on HT-29, 47.4 µM (inactive); with Hs-578T, 18 µM (inactive); in the assay on ACHN, 13.5 µM (inactive); with HL-60, 18.7 µM (inactive). Also, the GI50 with BT-549 is 14.5 µM (inactive); in the assay with DU-145 it was > 100 µM (inactive); in the assay on KM12, 62.2 µM (inactive); with MCF7 it was 25.6 µM (inactive).
On to `N#CCc1nc(-c2cc3ccccc3oc2=O)cs1`, for which the GI50 in the assay with MDA-MB-231 is 79.3 µM (inactive); with OVCAR-4 it was 44.1 µM (inactive); in the assay on SK-OV-3, > 100 µM (inactive); in the assay on OVCAR-8, 63.2 µM (inactive); in the assay on HCT-15, 35.8 µM; with SF-268, > 100 µM (inactive). Further, the GI50 in the assay with IGROV-1 was 40.6 µM (inactive); in the assay with MDA-MB-435 it was 44.6 µM (inactive); in the assay on HT-29 it was 54 µM (inactive); in the assay on Hs-578T, 56.9 µM (inactive); in the assay with ACHN, 42.5 µM (inactive); in the assay on HL-60 it was 17.5 µM (inactive). Besides, the GI50 in the assay with BT-549 is 17.9 µM (inactive); with DU-145, > 100 µM (inactive); in the assay with KM12, 26.7 µM (inactive); with K562, 45.8 µM (inactive); in the assay on MCF7 it was 54.8 µM (inactive).
As for `COC(=O)Nc1nc(=O)c2ccccc2[nH]1`, the GI50 with MDA-MB-231 was > 100 µM (inactive); in the assay on A498, > 10 µM (inactive); in the assay with OVCAR-4, > 100 µM (inactive); in the assay with SK-OV-3, 65.3 µM (inactive); in the assay on OVCAR-8, > 100 µM (inactive); with HCT-15, over 100 µM. Also, the GI50 in the assay with SF-268 is > 100 µM (inactive); in the assay on IGROV-1 it was > 100 µM (inactive); with OVCAR-3, > 100 µM (inactive); with NCI-H23, > 100 µM (inactive); with HT-29, > 100 µM (inactive); in the assay on Hs-578T, 76.7 µM (inactive). Besides, the GI50 in the assay on ACHN was > 100 µM (inactive); with HL-60, > 100 µM (inactive); in the assay on BT-549 it was > 100 µM (inactive); in the assay with DU-145, > 100 µM (inactive); with KM12, 90.4 µM (inactive); in the assay with K562, 31.1 µM (inactive). Further, in the assay on MCF7, the GI50 was > 100 µM (inactive).
Take `O=[N+]([O-])c1ccc2nnnn2c1`: the GI50 with MDA-MB-231 was 10.8 µM (inactive); in the assay with OVCAR-4, 78.7 µM (inactive); in the assay with SK-OV-3, 42.6 µM (inactive); in the assay on OVCAR-8 it was 44.1 µM (inactive); in the assay on HCT-15, 8.22 µM; with SF-268, 70.6 µM (inactive). Also, the GI50 is 34.3 µM (inactive) with IGROV-1; 13.5 µM (inactive) with OVCAR-3; 11.5 µM (inactive) in the assay with MDA-MB-435; 22.6 µM (inactive) with NCI-H23; 16.5 µM (inactive) in the assay on HT-29; 5.38 µM (inactive) in the assay on Hs-578T. The GI50 with ACHN was 10.7 µM (inactive); in the assay with HL-60, 16 µM (inactive); with BT-549 it was 23.3 µM (inactive); in the assay with DU-145 it was 37.2 µM (inactive); in the assay with KM12, 23.1 µM (inactive); in the assay with K562, 3.18 µM (inactive). Further, the GI50 in the assay on MCF7 is 24 µM (inactive).
As to `CN(C(=O)c1cccs1)C(=S)N1CCN(c2ccccc2)CC1`, the GI50 is > 100 µM (inactive) in the assay on MDA-MB-231; > 100 µM (inactive) in the assay with OVCAR-4; > 100 µM (inactive) with OVCAR-8; over 100 µM with HCT-15; > 100 µM (inactive) with SF-268; > 100 µM (inactive) in the assay with IGROV-1. In addition, the GI50 in the assay on OVCAR-3 was > 100 µM (inactive); in the assay on MDA-MB-435 it was > 100 µM (inactive); in the assay with NCI-H23, > 100 µM (inactive); in the assay on HT-29, > 100 µM (inactive); in the assay with Hs-578T it was 42.7 µM (inactive); with ACHN, > 100 µM (inactive). Besides, the GI50 in the assay with HL-60 was 68.5 µM (inactive); in the assay on BT-549 it was > 100 µM (inactive); in the assay with DU-145, > 100 µM (inactive); in the assay on KM12, > 100 µM (inactive); in the assay with K562, > 100 µM (inactive); in the assay with MCF7, > 100 µM (inactive).
As for `CC(C)[C@H](O)C(=O)N[C@H]1Cc2ccc3c(c2)[C@]24C5=C(N=C(O5)[C@H](C(C)C)NC1=O)c1nc(Cl)c(o1)-c1c(Cl)[nH]c5cccc(c15)-c1cccc2c1N[C@H]4O3`, the GI50 in the assay on MDA-MB-231 is 0.015 µM (active); in the assay with A498, 1.27 µM (inactive); in the assay on OVCAR-4, 1.57 µM (inactive); with SK-OV-3 it was 0.001 µM (active); in the assay on HCT-15, 0.0392 µM; in the assay with SF-268, 0.00513 µM (active). For the same compound, the GI50 is 0.00342 µM (active) with IGROV-1; 0.00253 µM (active) in the assay on OVCAR-3; 0.00625 µM (active) in the assay with NCI-H23; 0.0111 µM (active) in the assay with HT-29; 0.00256 µM (active) with Hs-578T; 0.0469 µM (active) with ACHN. The GI50 is 0.00863 µM (active) in the assay on BT-549; 0.00524 µM (active) in the assay on DU-145; 0.00607 µM (active) in the assay on KM12; 0.00427 µM (active) in the assay on K562; 0.00274 µM (active) with MCF7.
Regarding `CC1CN(C)c2ccccc2N=C1NN` (stereo unspecified), the GI50 in the assay with MDA-MB-231 was > 100 µM (inactive); with A498 it was > 100 µM (inactive); with OVCAR-4, > 100 µM (inactive); in the assay with SK-OV-3 it was > 100 µM (inactive); in the assay with OVCAR-8, > 100 µM (inactive); with HCT-15, over 100 µM. The GI50 with SF-268, in the assay with IGROV-1, in the assay with OVCAR-3, in the assay with MDA-MB-435, in the assay with NCI-H23 and in the assay with HT-29 was > 100 µM (inactive) in each case. Moreover, the GI50 with Hs-578T, in the assay with ACHN, in the assay on HL-60, in the assay with BT-549, in the assay on DU-145 and with KM12 was > 100 µM (inactive) in each case. The GI50 in the assay on K562 is 88.3 µM (inactive).
With `Cc1ccccc1N/C(=C(/C(Cl)=C(Cl)Cl)[N+](=O)[O-])n1nnc2ccccc21`, the GI50 with MDA-MB-231 was 21.3 µM (inactive); with A498, 19.4 µM (inactive); with OVCAR-4 it was 17.5 µM (inactive); with SK-OV-3 it was 15.3 µM (inactive); in the assay on HCT-15, 15.4 µM; in the assay with SF-268 it was 15.7 µM (inactive). For the same compound, the GI50 is 16.9 µM (inactive) in the assay on OVCAR-3; 16.5 µM (inactive) in the assay on MDA-MB-435; 19.1 µM (inactive) with NCI-H23; 19.4 µM (inactive) in the assay with HT-29; 11.6 µM (inactive) in the assay with Hs-578T; 29.2 µM (inactive) with ACHN. Besides, the GI50 is 14.1 µM (inactive) with BT-549; 22.4 µM (inactive) in the assay with DU-145; 15.9 µM (inactive) with KM12; 21.1 µM (inactive) in the assay with K562; 27.7 µM (inactive) in the assay on MCF7.
Regarding `COC(=O)[C@@H]1C[C@]2(CC=C(C)C)c3ccccc3N(S(=O)(=O)c3ccccc3)[C@@H]2N1C(=O)OC`, the GI50 is 20.4 µM (inactive) in the assay on MDA-MB-231; 18.1 µM (inactive) in the assay with OVCAR-4; 10.6 µM (inactive) in the assay on SK-OV-3; 20.3 µM (inactive) in the assay on OVCAR-8; 10.4 µM in the assay with HCT-15; 18 µM (inactive) in the assay with SF-268. The GI50 in the assay with OVCAR-3 was 19.4 µM (inactive); in the assay on MDA-MB-435, 10.4 µM (inactive); with NCI-H23, > 100 µM (inactive); in the assay on HT-29, 23.5 µM (inactive); in the assay on Hs-578T, 10.6 µM (inactive); in the assay with ACHN, 25.5 µM (inactive). In addition, the GI50 in the assay with HL-60 was 9.14 µM (inactive); in the assay on BT-549 it was 32.2 µM (inactive); in the assay with DU-145 it was > 100 µM (inactive); in the assay on KM12 it was 19.7 µM (inactive); with K562 it was 9.55 µM (inactive); in the assay with MCF7, 8.87 µM (inactive).
In the case of `CC1=NOC2(C1)/C(=N/O)CCC/C2=N\O` (stereo unspecified), the GI50 was > 100 µM (inactive) in the assay on MDA-MB-231; > 100 µM (inactive) with OVCAR-4; > 100 µM (inactive) with SK-OV-3; > 100 µM (inactive) in the assay with OVCAR-8; over 100 µM with HCT-15; > 100 µM (inactive) with SF-268. Further, the GI50 in the assay on IGROV-1, with OVCAR-3, in the assay with MDA-MB-435, in the assay with NCI-H23, in the assay with HT-29 and with Hs-578T was > 100 µM (inactive) throughout. Moreover, the GI50 with ACHN, in the assay with BT-549, with KM12, in the assay with K562 and in the assay on MCF7 was > 100 µM (inactive) in each case.
